Broadly, the pIC50 is the negative decadic logarithm of the IC50, by convention in mol/L.

This is an account of results in patent US6887873B2, “Triazine derivatives and their application as antitelomerase agents” (Aventis Pharma S.A., priority 2001, dated 2005).

For data set [1], the system named is human telomerease (HL60 cell extract). The data set is described as follows: Antitelomerease activity: extension of oligonucleotide TS followed by PCR amplification, with HL60 extract. The settings on record: read-out: TRAP IC50. It is filed as biochemical. In short, it runs like this:
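HL60 CHAPS-lysate extract extends TS primer (15 min, 30 °C) with compound at 10, 1, 0.1 and 0.01 µM, followed by 30-cycle PCR with TS and CXext. Products resolved on 12% acrylamide and quantified; % inhibition versus enzyme control and blank, IC50 read from semilog plot.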

For a further data set, the system named is A549 cells. Put plainly: Cytotoxic activity on human tumour line A549, neutral red, 96 hours. It is filed as cell-based. The settings on record: read-out: Cytotox. A549 IC50. The method, then: The cytotoxic biological activity on human tumour lines is determined according to the following experimental protocol:
The human cell lines A549 are obtained from ATCC (American Type Culture Collection, Rockville, USA). The A549 cells are cultured in a layer in a culture flask in RPMI 1640 medium containing L-glutamine at 2 mM, penicillin 200 U/ml, streptomycin 200 μg/ml and supplemented with 10% heat-inactivated foetal calf serum. The KB cells are cultured in a layer in a culture flask in Dulbelco's medium containing L-glutamine at 2 mM, penicillin 200 U/ml, streptomycin 200 μg/ml and supplemented with 10% heat-inactivated foetal calf serum.
The cells at the exponential growth phase are trypsinized, washed in 1×PBS and are inoculated in 96-well microplates (Costar) in an amount of 4×10^4 cells/ml for A549 and of 1.5×10^4 cells/ml (0.2 ml/well) and then incubated for 96 hours in the presence of variable concentrations of product to be studied (10, 1, 0.1 and 0.01 μM, each point in quadruplicate). 16 hours before the end of the incubation, 0.02% final of neutral red is added to each well. At the end of the incubation, the cells are washed with 1×PBS and lysed with 1% sodium lauryl sulphate. The cellular incorporation of the dye, which reflects cellular growth, is evaluated by spectro-photometry at a wavelength of 540 nm for each sample with the aid of a Dynatech MR5000 reading apparatus.
For each compound concentration tested, the results are expressed as percentage of inhibition of cellular growth and calculated from the untreated control and the culture medium free of cells (blank) according to the following formula: (compound value−blank value/cell control value−blank value)×100.
The concentration of compound inducing a 50% inhibition of growth (IC50) is determined with the aid of a semilogarithmic graphical representation of the inhibition values obtained as a function of each of the compound concentrations tested.
A compound is considered to be active as cytotoxic agent if the concentration inhibiting the growth of the tumour cells tested by 50% is in particular less than 10 μM.

pIC50: −log10 of the molar value. Where two headings read alike, the source gives them in different places.

Turning to `Cc1cc(N(C)C)c2cc(Nc3nc(Nc4ccc5nc(C)cc(N(C)C)c5c4)nc(N4CCCN(CCCN5CCCC5)CC4)n3)ccc2n1` [Example 139], the pIC50 in data set [1] was 6.22; in the data set on A549 cells (Homo sapiens, A549, A549), 7.35.

As for `Cc1cc(N(C)C)c2cc(Nc3nc(Nc4ccc5nc(C)cc(N(C)C)c5c4)nc(N(C)C4CCN(C)CC4)n3)ccc2n1` [Example 138, 2,4-bis(4-dimethylamino-2-methylquinolin-6-yl)amino-6-[N-(1-methylpiperidin-4-yl)-N-methylamino]-[1,3,5]triazine], the pIC50 in data set [1] is 6.30; with A549 cells (Homo sapiens, A549, A549) it was 7.21.

Consider `Cc1cc(N)c2cc(Nc3nc(Nc4ccc(N5CCNCC5)cc4)nc(Nc4ccc5nc(C)cc(N)c5c4)n3)ccc2n1` [Example 15], for which the pIC50 in data set [1] was 6.72; in the data set with A549 cells (Homo sapiens, A549, A549), 5.73.

With `CCCN(CCC)CCN1CCN(c2nc(Nc3ccc4nc(C)cc(N(C)C)c4c3)nc(Nc3ccc4nc(C)cc(N(C)C)c4c3)n2)CC1` [Example 137, 2,4-bis(4-dimethylamino-2-methylquinolin-6-yl)amino-6-[1-(2-dipropylaminoethyl)piperazin-4-yl]-[1,3,5]triazine], the pIC50 is 6.00 in data set [1] and 6.82 in the data set with A549 cells (Homo sapiens, A549, A549).

For `Cc1cc(N(C)C)c2cc(Nc3nc(Nc4ccc5nc(C)cc(N(C)C)c5c4)nc(C4CCN(C)CC4)n3)ccc2n1` [Example 19, 2,4-bis(4-dimethylamino-2-methylquinolin-6-yl)amino-6-(1-methylpiperidin-4-yl)-[1,3,5]triazine], the pIC50 was 6.28 in data set [1] and 6.52 in the data set with A549 cells (Homo sapiens, A549, A549).

Turning to `Cc1cc(N)c2cc(Nc3nc(Nc4ccc5nc(C)cc(N)c5c4)nc(NC4CN5CCC4CC5)n3)ccc2n1` (stereo not shown) [Example 17, 2,4-bis(4-amino-2-methylquinolin-6-yl)amino-6-(quinuclidin-3-yl)amino-[1,3,5]triazine], the pIC50 in data set [1] is 7.00; in the data set on A549 cells (Homo sapiens, A549, A549), 5.56.

Consider `Cc1cc(N(C)C)c2cc(Nc3nc(NCCCN(C)C)nc(Nc4ccc5nc(C)cc(N(C)C)c5c4)n3)ccc2n1` [Example 1, 2,4-bis(4-dimethylamino-2-methylquinolin-6-yl)amino-6-(3-dimethylaminopropyl)amino-[1,3,5]triazine], for which the pIC50 is 6.26 in data set [1] and 6.64 in the data set with A549 cells (Homo sapiens, A549, A549).

In the case of `Cc1cc(N)c2cc(Nc3nc(Nc4ccc5nc(C)cc(N)c5c4)nc(N4CCN(C5CCCC5)CC4)n3)ccc2n1` [Example 43], the pIC50 is 6.74 in data set [1] and 5.00 with A549 cells (Homo sapiens, A549, A549).

Take `CC(=O)NCCNc1nc(Nc2ccc3nc(C)cc(N(C)C)c3c2)nc(Nc2ccc3nc(C)cc(N(C)C)c3c2)n1` [Example 150]: the pIC50 is 5.60 in data set [1] and 5.61 in the data set with A549 cells (Homo sapiens, A549, A549).

Take `Cc1cc(N(C)C)c2cc(Nc3nc(Nc4ccc5nc(C)cc(N(C)C)c5c4)nc(N4CCN(C)CC4)n3)ccc2n1` [Example 20, 2,4-bis(4-dimethylamino-2-methylquinolin-6-yl)amino-6-(4-methylpiperazin-1-yl)-[1,3,5]triazine]: the pIC50 in data set [1] was 6.36; in the data set with A549 cells (Homo sapiens, A549, A549), 6.46.

For `Cc1cc(N(C)C)c2cc(Nc3nc(Nc4ccc5nc(C)cc(N(C)C)c5c4)nc(N4CCN(CCOCCO)CC4)n3)ccc2n1` [Example 141, 2,4-bis(4-dimethylamino-2-methylquinolin-6-yl)amino-6-{[1-2-(2-hydroxyethyl)oxyethyl]piperazin-4-yl}-[1,3,5]triazine], the pIC50 in data set [1] is 6.05; with A549 cells (Homo sapiens, A549, A549), 7.02.

On to `COc1cccc(Oc2nc(Nc3ccc4nc(C)cc(N)c4c3)nc(Nc3ccc4nc(C)cc(N)c4c3)n2)c1` [Example 104], for which the pIC50 in data set [1] was 5.92; in the data set on A549 cells (Homo sapiens, A549, A549), 4.94.

With `Cc1cc(N)c2cc(Nc3nc(Nc4ccc5nc(C)cc(N)c5c4)nc(Oc4ccccc4Cl)n3)ccc2n1` [Example 103], the pIC50 in data set [1] is 6.55; in the data set with A549 cells (Homo sapiens, A549, A549), 4.95.

Turning to `Cc1cc(N)c2cc(Nc3nc(Nc4ccc5nc(C)cc(N)c5c4)nc(N4CCN(C5CCCCCCC5)CC4)n3)ccc2n1` [Example 77], the pIC50 in data set [1] is 6.32; with A549 cells (Homo sapiens, A549, A549), 5.25.

With `Cc1cc(N(C)C)c2cc(Nc3nc(Nc4ccc5nc(C)cc(N(C)C)c5c4)nc(N4CCN(C5CCCC5)CC4)n3)ccc2n1` [Example 143], the pIC50 in data set [1] is 6.40; in the data set with A549 cells (Homo sapiens, A549, A549) it was 6.28.

As for `Cc1cc(N)c2cc(Nc3nc(Nc4ccc5nc(C)cc(N)c5c4)nc(OCCN(C)Cc4ccccc4)n3)ccc2n1` [Example 105], the pIC50 in data set [1] is 6.62; in the data set on A549 cells (Homo sapiens, A549, A549), 4.94.

As for `Cc1cc(N(C)C)c2cc(Nc3nc(Nc4ccc5nc(C)cc(N(C)C)c5c4)nc(N4CCCN(C)CC4)n3)ccc2n1` [Example 135, 2,4-bis(4-dimethylamino-2-methylquinolin-6-yl)amino-6-(1-methylhomopiperazin-4-yl)-[1,3,5]triazine], the pIC50 is 6.40 in data set [1] and 7.15 in the data set with A549 cells (Homo sapiens, A549, A549).

Take `Cc1cc(N(C)C)c2cc(Nc3nc(NCC[N+](C)(C)C)nc(Nc4ccc5nc(C)cc(N(C)C)c5c4)n3)ccc2n1` [Example 142]: the pIC50 was 6.00 in data set [1] and 5.81 in the data set with A549 cells (Homo sapiens, A549, A549).

With `Cc1cc(N(C)C)c2cc(Nc3nc(NCc4ccncc4)nc(Nc4ccc5nc(C)cc(N(C)C)c5c4)n3)ccc2n1` [Example 27, 2,4-bis(4-dimethylamino-2-methylquinolin-6-yl)amino-6-(pyridin-4-yl)methylamino-[1,3,5]triazine], the pIC50 is 6.22 in data set [1] and 6.00 with A549 cells (A549).

`Cc1cc(N)c2cc(Nc3nc(Nc4ccc5nc(C)cc(N)c5c4)nc(NC4CCN(Cc5ccccc5)CC4)n3)ccc2n1` [Example 93]: the pIC50 in data set [1] was 6.43; in the data set on A549 cells (Homo sapiens, A549, A549), 5.03.

Consider `Cc1cc(N(C)C)c2cc(Nc3nc(NCc4ccncc4)nc(Nc4ccc5nc(C)cc(N(C)C)c5c4)n3)ccc2n1` [Example 145], for which the pIC50 is 6.00 in data set [1] and 6.38 in the data set with A549 cells (A549).

For `Cc1cc(N)c2cc(Nc3nc(Nc4ccc5nc(C)cc(N)c5c4)nc(N(Cc4ccccc4)C4CN5CCC4CC5)n3)ccc2n1` (stereo not shown) [Example 92], the pIC50 is 6.37 in data set [1] and 5.11 in the data set on A549 cells (Homo sapiens, A549, A549).

Regarding `Cc1cc(N)c2cc(Nc3nc(Nc4ccc5nc(C)cc(N(C)C)c5c4)nc(Nc4ccccc4Cl)n3)ccc2n1` [Example 3], the pIC50 is 5.68 in data set [1] and 5.22 in the data set with A549 cells (Homo sapiens, A549, A549).

Take `Cc1cc(N(C)C)c2cc(Nc3nc(Nc4ccc5nc(C)cc(N(C)C)c5c4)nc(N4CCN(c5ccncc5)CC4)n3)ccc2n1` [Example 144, 2,4-bis(4-dimethylamino-2-methylquinolin-6-yl)amino-6-[1-(pyridin-4-yl)piperazin-4-yl]-[1,3,5]triazine]: the pIC50 in data set [1] was 6.40; in the data set with A549 cells (Homo sapiens, A549, A549), 7.40.

Take `Cc1cc(N(C)C)c2cc(Nc3nc(Nc4ccc5nc(C)cc(N(C)C)c5c4)nc(Oc4ccncc4)n3)ccc2n1` [Example 115, 2,4-bis(4-dimethylamino-2-methylquinolin-6-yl)amino-6-(pyridin-4-yl)oxy-[1,3,5]triazine]: the pIC50 was 6.30 in data set [1] and 5.80 in the data set with A549 cells (Homo sapiens, A549, A549).

For `Cc1cc(N)c2cc(Nc3nc(Nc4ccc5nc(C)cc(N)c5c4)nc(Sc4ccccn4)n3)ccc2n1` [Example 120], the pIC50 in data set [1] was 6.42; with A549 cells (Homo sapiens, A549, A549), 4.75.

Regarding `Cc1cc(N(C)C)c2cc(Nc3nc(Nc4ccncc4)nc(Nc4ccc5nc(C)cc(N(C)C)c5c4)n3)ccc2n1` [Example 18], the pIC50 in data set [1] is 5.92; with A549 cells (Homo sapiens, A549, A549), 5.54.

Take `Cc1cc(N)c2cc(Nc3nc(Nc4ccc5nc(C)cc(N)c5c4)nc(N4CCN(C(=O)c5ccco5)CC4)n3)ccc2n1` [Example 68]: the pIC50 in data set [1] was 6.52; in the data set with A549 cells (Homo sapiens, A549, A549), 4.94.

On to `Cc1cc(N)c2cc(Nc3nc(Nc4ccc5nc(C)cc(N)c5c4)nc(Nc4ccc5nc(C)cc(N)c5c4)n3)ccc2n1` [Example 2, 2,4,6-tris(4-amino-2-methylquinolin-6-yl)amino-[1,3,5]triazine], for which the pIC50 in data set [1] is 7.22; in the data set on A549 cells (Homo sapiens, A549, A549), 5.00.

Consider `Cc1cc(N(C)C)c2cc(Nc3nc(NCCN4CCN(Cc5ccccc5)CC4)nc(Nc4ccc5nc(C)cc(N(C)C)c5c4)n3)ccc2n1` [Example 140], for which the pIC50 is 6.00 in data set [1] and 6.29 in the data set with A549 cells (Homo sapiens, A549, A549).

`Cc1cc(N(C)C)c2cc(Nc3nc(Nc4ccc5nc(C)cc(N(C)C)c5c4)nc(N4CCN(CCCN(C)C)CC4)n3)ccc2n1` [Example 136, 2,4-bis(4-dimethylamino-2-methylquinolin-6-yl)amino-6-[1-(3-dimethylaminopropyl)piperazin-4-yl]-[1,3,5]triazine]: the pIC50 in data set [1] is 6.92; with A549 cells (Homo sapiens, A549, A549) it was 7.59.

Take `Cc1cc(C)nc(Sc2nc(Nc3ccc4nc(C)cc(N)c4c3)nc(Nc3ccc4nc(C)cc(N)c4c3)n2)n1` [Example 127]: the pIC50 is 6.08 in data set [1] and 4.80 in the data set on A549 cells (Homo sapiens, A549, A549).
